Test results taken from patent publication US7771713B2, “Chemical composition that attract arthropods” (priority 1999, dated 2010).
“And” between values parts separate entries of the source, which are not always exact repeats. Identical values can stand only once.

How the values were obtained:
[1] = system: Anopheles albimanus; experiment: Olfactometer attraction test of compounds and compositions; type: in vivo;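 note: olfactometer with a treatment port and a matching control port using identical delivery device and conditions, both opened together, three tests per battery, each run in its own cage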
[2] = system: Aedes aegypti; experiment: Olfactometer attraction test, treatment port vs control port, approximately 75 female mosquitoes; type: in vivo; conditions: for Acetone Avg response: average of n = 4 trials, 500 μL from a 60 mm diameter glass petri dish; for Δ [(Resp with LA) − Resp] (%): difference between response with L-lactic acid and response alone; for LA Avg response: average of n = 51 trials, 200 μL of 1 μg/μL methanolic solution; for Response with Ace (%): base compound together with acetone; for Δ [(Resp with Ace) − Resp] (%): difference between response with acetone and response alone; for Response with L-LA (%): compound 500 μL together with L-lactic acid
Protocol: (§1) The tests were conducted in an olfactometer (55 ft^3/min airflow, 80° F., 60% R.H.) as described by Posey, J. Med. Entomol., 35, 330-334 (1998); and LA is lactic acid. Mosquitoes were allowed to settle at least one hour prior to testing. The olfactometer was cleaned after each battery of tests. Each battery consisted of three tests, conducted at 08:30, 11:00 and 13:00 hours local time. Each of the three tests was conducted in a separate cage. The control consisted of identical sample delivery devices and conditions compared to that of the treatment side. Both the treatment and control ports were opened and closed simultaneously when inserting a new treatment/control.

[3] = system: Aedes albopictus; experiment: Olfactometer attraction test of compounds and compositions; type: in vivo
Source text: The olfactometer was cleaned after each battery of tests.

[4] = system: Aedes aegypti; experiment: Formulation and verification of the best blend: one treatment vs another treatment in the olfactometer; conditions: 200 μg L-lactic acid (1w) vs. 200 μg L-lactic acid (1w) + Acetone (3B)
Protocol: as §1

[5] = base compound alone (mode of action similar to lactic acid)
[6] = compound alone, high dose of 500 μL
[7] = single compound, dose 500 (μL), 60 mL glass petri dish, Aedes aegypti attraction

Row | Structure (SMILES) | % caught ([1]; single treatment, 500 μL) | Δ [(Resp with LA) − Resp] (%) [2] | Response with L-LA (%) [2] | Response (%) [2, 6] | further results
1 | CC(C)=O [acetone] | 29.6% | 37% | – | – | Acetone Avg response [2]: 51%; Acetone Avg response ([2]; listed as Acetone): Acetone Avg: 203/4 = 51%, n = 4 trials; Response with L-LA (%), average in parentheses ([2]; compound 500 μL with L-lactic acid, average of the trials): (88%); Response (%), average in parentheses ([2]; compound alone 500 μL, average of the trials): (51%); Acetone response (%) ([2]; single trials, 500 μL, plated on a small petri dish): 51% and 48% and 53%; % caught ([3]; single substance, 500 μL Dish): 9.1%
2 | C[C@H](O)C(=O)O [L-lactic acid] | – | – | – | – | % caught ([1]; single substance, 400 μg dish): 1.3%; LA Avg response [2]: 26%; LA Avg response ([2]; listed as LA): LA Avg: 1303/51 = 26%, n = 51 trials; Response (%) [2, 5]: 26%; Response with Ace (%) [2]: 88%; Δ [(Resp with Ace) − Resp] (%) [2]: 62%; L-lactic acid response (%) ([2]; single trials, 200 μL of a 1 μg/1 μL methanolic solution, dried 3 minutes in a petri dish, percentage caught of 75 female mosquitos): 27%; % caught ([3]; single substance, 200 μg, listed as LA): 11.7% and 8.3%; % mosquitoes trapped, treatment vs treatment [4]: 8%
3 | CCCCC(=O)CC [3-heptanone] | 11.3% | 24% | 36% | 12% | –
4 | ClCCl [methylene chloride] | 75.7% | −7% | 7090% | 87% | –
5 | CC(=O)C(C)=O [2,3-butanedione] | 1.4% | −8% | 29% | 37% | –
6 | N#CCc1ccccc1 [phenylacetonitrile] | 1.3% | 47% | 63% | 16% | –
7 | CCC(C)C(C)=O (stereo not drawn) [3-methyl-2-pentanone] | 17.1% | 1% | 9% | 8% | –
8 | CSSSC [dimethyl trisulfide] | 91.8% | 46% | 67% | 21% | Response Avg % ([2]; no Base, Activator1 dose 500, 60 mL glass petri dish): 21.0%
9 | CCC(=O)C(C)C [2-methyl-3-pentanone] | 5.3% | 8% | 9% | 1% | Response Avg % [2, 7]: 1.0%
10 | CCCC(=O)CCC [4-heptanone] | 8.0% | 20% | 32% | 12% | –
11 | CC(=O)C(C)O (stereo not drawn) [3-hydroxy-2-butanone] | 1.3% | 24% | 35% | 11% | Response (%) [2, 5]: 9%; Response with Ace (%) [2]: 57%; Δ [(Resp with Ace) − Resp] (%) [2]: 48%
12 | CC(=O)c1ccccc1 [acetophenone] | 7.9% | 37% | 46% | 9% | –
13 | CCCC=O [butyraldehyde] | 1.3% | 1% | 7% | 6% | Response (%) [2, 5]: 6%; Response with Ace (%) [2]: 7%; Δ [(Resp with Ace) − Resp] (%) [2]: 1%
14 | O=Cc1ccccc1 [benzaldehyde] | 35.5% | 12% | 21% | 9% | –
15 | CC(=O)C(=O)O [Pyruvic Acid] | 1.4% | – | – | – | Response Avg % ([2]; Base alone, dose 50 uL): 30.7%
16 | ClC(Cl)(Cl)Cl [carbon tetrachloride] | 74.0% | 0% | 92% | 92% | –
17 | CCCC(C)=O [2-pentanone] | 10.8% | 64% | 76% | 8% | –
18 | C=CC(=O)CC [1-penten-3-one] | 29.3% | 4% | 23% | 19% | –
19 | CCCCCCC(C)=O [2-octanone] | 28.6% | 8% | 16% | 8% | –
20 | CCCCCCC(=O)CC [3-nonanone] | 15.8% | 5% | 9% | 4% | Response Avg % [2, 7]: 4.0%
21 | Cc1ccc(O)cc1 [p-cresol] | 29.5% | 27% | 32% | 5% | Response Avg % [2, 7]: 5.0%
22 | CC(=O)CCC=C(C)C [6-methyl-5-hepten-2-one] | 26.0% | 27% | 16% | 9% | –
23 | CCCCC(=O)CCCC [5-nonanone] | 12.7% | 33% | 47% | 14% | –
24 | CC(=O)C(C)C [3-methyl-2-butanone] | 24.4% | 74% | 82% | 8% | –
25 | CCC(=O)CC [3-pentanone] | 53.9% | 16% | 28% | 12% | –
26 | CSC [dimethyl sulfide] | 68.4% | 47% | 79% | 32% | –
27 | CSSC [dimethyl disulfide] | 97.3% | 50% | 86% | 36% | –
28 | Cc1ccco1 [2-methylfuran] | 35.5% | 37% | 52% | 15% | caught in CK (check or control port) ([2]; compound alone 500 μL in treatment port, mosquitoes in control port): 30%
29 | C=CC(=C)C [isoprene] | 0.0% | 11% | 23% | 12% | Response (%) [2, 5]: 12%; Response with Ace (%) [2]: 56%; Δ [(Resp with Ace) − Resp] (%) [2]: 44%
30 | NCCCCN [1,4-Diaminobutane] | – | – | – | – | % caught ([3]; single treatment, 1B (1 black cap)): 6.8%
